Results reported in patent US20250025444A1, “TREATMENT OF NEURODEGENERATIVE DISEASES VIA ADMINISTRATION OF BUNTANETAP AND A PHOSPHODIESTERASE INHIBITOR” (ANNOVIS BIO, INC., priority 2022, published 2025).
Marks after values point to notes of the source that are not given here.

How the values were obtained:
[1] = tested on: traumatic brain injury rats; details: cited from earlier work
clinical = details: human, brain (relative to plasma)
APP [2] = details: literature report; cited from earlier work
rat acute glaucoma model = details: cited from earlier work
tau [3] = details: unpublished observation, Peter Davies Laboratory; cited from earlier work
αSYN [4] = details: transgenic Parkinson's animals, brain and gut; cited from earlier work
[5] = tested on: mouse hippocampal slices perfused with 200 nM oligomeric Aβ; test: Electrophysiological analysis (LTP, CA1 fEPSP) of hippocampal slices perfused with oligomeric Aβ; type: cell-based, C57BI6 mice; details: for Aβ-induced LTP defect: 200 nM oligomeric Aβ
Experimental: Animals: C57BI6 mice of both sexes were used for these experiments. They were obtained by a breeding colony maintained at the animal facility of Columbia University.
Aβ was prepared as previously described (Stine at al, J Biol Chem. 2003).
Electrophysiological Analysis was performed on […] hippocampal slices, cut with a tissue chopper and maintained in an interface chamber at 29° C. for 90 min prior to recording. Briefly, CA1 fEPSPs were recorded by placing both the stimulating and the recording electrodes in CA1 stratum radiatum. Basal synaptic transmission was assayed, either by plotting the stimulus voltages against slopes of fEPSP, or by plotting the peak amplitude of the fiber volley against the slope of the fEPSP. A 10 min baseline was recorded every min at an intensity that evokes a response, ˜35% of the maximum evoked response in the presence of vehicle. Then slices were either perfused with 200 nM oligomeric Aβ or vehicle with or without compound for 20 min prior to applying a theta burst stimulation (4 pulses at 100 Hz, with the bursts repeated at 5 Hz and each tetanus including 3 ten-burst trains separated by 15 sec). Data was subjected to statistical analyses to determine the effects of combination on inhibiting synaptic dysfunction.
Slices were coded to blind investigators with respect to treatment. Results were expressed with Standard Error of the Mean (SEM). Level of significance was set for p<0.05. Results were analyzed by ANOVA analysis with post-hoc correction.

[6] = cited from earlier work
[7] = tested on: early AD patients and early PD patients; details: cited from earlier work
[8] = tested on: early AD patients and early PD patients; test: Phase 2a double-blind, placebo-controlled study in early AD and early PD patients; type: in vivo, human
[9] = tested on: APP/PS1 transgenic (tg) mouse model of AD; details: cited from earlier work
[10] = tested on: fully differentiated Down syndrome nerve cells; details: cited from earlier work
[11] = tested on: human SNCAA53T tg mouse model of PD; details: cited from earlier work
APP and its fragments [12] = details: APP/PS1 transgenic mice, literature report; cited from earlier work
APP and its fragments [13] = test: APP in vivo: APP/PS1 transgenic AD mice, hippocampus
Excerpt: (§1) Buntanetap's effect on neurotoxic proteins.
FIG. 2A, APP in vivo. […] GAPDH and Synaptophysin were loading controls. FIG. 2 also includes a collection of graphs showing relative density of APP plotted against control and time after buntanetap treatment; relative density of CTFβ plotted against control and time after buntanetap treatment; relative density of CTFα plotted against control and time after buntanetap treatment; Aβ42 levels in brain tissue plotted against control and time after buntanetap treatment; and Aβ40 levels in brain tissue plotted against control and time after buntanetap treatment. Finally, FIG. 2 also includes a Western blot showing levels of APP, NSB, CTFβ, and CTFα after buntanetap treatment over time (minutes).

αSYN [14] = details: neuroblastoma cells; cited from earlier work
[15] = tested on: patients with mild to moderate AD; test: Randomized, double-blind, placebo-controlled Phase II/III study in mild to moderate AD (NCT05686044); type: in vivo, human
Experimental: A randomized, double-blind, placebo-controlled Phase II/III study trial investigating the efficacy, safety, and tolerability of buntanetap in patients with mild to moderate AD was conducted. This was a dose-ranging study where patients received either one of three doses of buntanetap (7.5 mg, 15 mg, or 30 mg) or placebo on top of their standard of care for 12 weeks. In this study, over 700 patients were screened, a total of 353 patients were enrolled, and 325 patients completed the study across 54 sites in the US. The study included mild to moderate AD patients whose Mini Mental State Examination (MMSE) scores at baseline ranged from 14 to 24. (www.clinicaltrials.gov (NCT05686044)).
Beyond safety, the trial assessed the changes in two co-primary endpoints: Alzheimer's Disease Assessment Scale-Cognitive Subscale 11 (ADAS-Cog 11) and Alzheimer's Disease Cooperative Study Clinician's Global Impression of Change (ADCS-CGIC), which assess cognition and activities of daily living. The study monitored for safety and collected plasma to measure several biomarkers to assess the disease state, potential disease progression, and treatment effects.

[16] = tested on: APP, Tau, and αSYN in the cerebrospinal fluid (CSF); details: cited from earlier work
tau [17] = details: Human tau mice, unpublished observation; cited from earlier work
[18] = tested on: Ts65dn mouse model of Down syndrome (DS); details: cited from earlier work
APP [19] = test: APP in vitro, Western blot in SH-SY-5Y human neuroblastoma cells; type: cell-based; details: SH-SY-5Y cells, 0, 0.1, 1, 5 and 10 μM
Excerpt: as §1

[20] = tested on: APP, Tau, and αSYN in the cerebrospinal fluid (CSF); test: Study of MCI subjects: CSF and plasma markers before and after 10 days of buntanetap (proof of mechanism); details: 4×60 mg/day
[21] = 3 phase 3 clinical studies, failed; cited from earlier work
[22] = in vivo; cited from earlier work

CN1CC[C@]2(C)c3cc(OC(=O)Nc4ccccc4)ccc3N(C)C12 (single isomer, unassigned) [buntanetap]
inflammation ([1]; rat brain after TBI): lowered | impaired synaptic transmission ([1]; rat striatum after TBI): Normalized | nerve cell protection ([1]; rat substantia nigra after TBI): protected | memory and learning ([1]; traumatic brain injury rats): Preserved | Kp (clinical): ~8 | levels of APP in vitro in neuroblastoma cells (APP [2]): lowers | retina (rat acute glaucoma model; acute glaucoma): Preserved | nerve cell protection (rat acute glaucoma model; rat acute glaucoma model): protected | tau in vitro (tau [3]): lowers | αSYN in vivo (αSYN [4]): lowers | % Improvement (based on change in Residual Potential; veh minus wt ab = 100%) ([5]; ab + buntanetap 1 μM): 26.7% | Residual Potential (mean) ([5]; ab + buntanetap 1 μM): 152.11 | % Improvement (based on change in Residual Potential; veh minus wt ab = 100%) ([5]; ab + buntanetap 10 μM): 110.7% | Residual Potential (mean) ([5]; ab + buntanetap 10 μM): 210.49 | Aβ-induced LTP defect ([5]; buntanetap 1 μM alone): did not ameliorate | tolerability ([6]; doses up to 4×60 mg daily×10 days): well tolerated | terminal half-life ([6]; plasma, all doses, cleared biphasically): 4.3 to 4.7 h | levels of neurotoxic proteins and inflammatory factors (biomarker data) ([7]; AD and PD cohorts): trend in lowering | ADAS-Cog11 and WAIS coding ([7]; AD patients): statistically significant improvements | MDS-UPDRS and WAIS coding ([7]; PD patients): statistically significant improvements | safety and tolerability ([7]; doses up to 80 mg, AD and PD patients): well tolerated | Cmax and AUC ([7]; plasma, up to 80 mg QD): increased with dose without evidence for a plateau | axonal and synaptic function ([8]; AD and PD patients): improved | blood brain barrier passage ([8]; AD and PD patients): crossed the blood brain barrier | inflammatory markers ([8]; AD and PD patients): reduced | neurotoxic protein biomarkers ([8]; AD and PD patients): reduced | cognition as measured by ADAS-Cog11 and WAIS coding speed ([8]; AD patients, 80 mg QD, significant versus baseline): improved | motor function as measured by MDS-UPDRS (Part II, III, IV and total) ([8]; PD patients, all doses 5-80 mg QD, maximum improvement for 10 & 20 mg): improved | WAIS speed and accuracy ([8]; PD patients, significant versus placebo at 5 mg, 20 mg and 80 mg): improved | memory and learning ([9]; APP/PS1 tg mouse model of AD): Restored | impaired synaptic transmission ([9]; hippocampus of APP/PS1 tg mice): Normalized | anterograde and retrograde vesicle transport [10]: Normalized | colonic motility [11]: Restored | levels of APP and all its fragments (APP and its fragments [12]): lowers | duration of reduction of APP and all related peptides in hippocampus after the last dose (APP and its fragments [13]; APP/PS1 mice): at least 9 hours | APP and its fragments in hippocampus (APP and its fragments [13]; APP/PS1 transgenic AD mice): reduced | αSYN in vitro (αSYN [14]): lowers | Non-Responders (Number) ([15]; 7.5 mg): 5 | Non-Responders (Percentage) ([15]; 7.5 mg): (26.32%) | Responders (Number) ([15]; 7.5 mg): 14 | Responders (Percentage) ([15]; 7.5 mg): (73.68%)** | Non-Responders (Number) ([15]; 15 mg): 7 | Non-Responders (Percentage) ([15]; 15 mg): (28.00%) | Responders (Number) ([15]; 15 mg): 18 | Responders (Percentage) ([15]; 15 mg): (72.00%)** | Non-Responders (Number) ([15]; 30 mg): 3 | Non-Responders (Percentage) ([15]; 30 mg): (12.50%) | Responders (Number) ([15]; 30 mg): 21 | Responders (Percentage) ([15]; 30 mg): (87.50%)*** | difference in the proportion of participants who improved relative to placebo ([15]; 30 mg group): three-fold | duration of effect in lowering neurotoxic proteins and inflammation after the last dose ([16]; MCI subjects, CSF, 12 h sampling period): ≥ 12 h | CSF Aβ42 ([16]; MCI subjects): trend to lower | CSF levels of sAPPα, sAPPβ, t-tau, p-tau, and specific inflammatory markers ([16]; MCI subjects): significantly lowered | half-life in CSF ([16]; MCI subjects): > 12 h | inflammation ([16]; human CSF of MCI subjects): lowered | tau in vivo (tau [17]): lowers | memory and learning [18]: Restored | APP level (Western blot, in relation to Actin standard) (APP [19]): lowers APP in vitro in a dose-dependent manner | levels of APP, Tau, and αSYN in the cerebrospinal fluid (CSF) [20]: normalized

COc1ccc(CNc2c(CO)cnc3c(C4CC4)cc(C#N)cc23)cc1Cl [7a, 4-[(3-Chloro-4-methoxybenzyl)amino]-8-cyclopropyl-3-(hydroxymethyl) quinoline-6-carbonitrile]
Aβ-induced LTP defect ([5]; 7a 1 nM alone): did not ameliorate | % Improvement (based on change in Residual Potential; veh minus wt ab = 100%) ([5]; ab + 7a 1 nM): 14.23% | Residual Potential (mean) ([5]; ab + 7a 1 nM): 147.78 | % Improvement (based on change in Residual Potential; veh minus wt ab = 100%) ([5]; ab + 7a 10 nM): 59.63% | Residual Potential (mean) ([5]; ab + 7a 10 nM): 174.99 | % Improvement (based on change in Residual Potential; veh minus wt ab = 100%) ([5]; ab + 7a 50 nM): 106.8% | Residual Potential (mean) ([5]; ab + 7a 50 nM): 207.77

CN1CC[C@@]2(C)c3cc(OC(=O)Nc4ccccc4)ccc3N(C)[C@@H]12 [phenserine, (−)-N-phenylcarbamoyl eseroline]
side effects [21]: high cholinomimetic side effects

COc1ccc(CN=c2[nH]c(N3CCC[C@H]3CO)ncc2C(=O)NCc2ncccn2)cc1Cl [avanafil]
half-life [22]: about 5 hours
